Data as given in the supplement of paper PMC10307832.

What was measured:
Test in all cases: relative viability (nuclei count vs DMSO), 5 days (fraction); higher = more cells survive
NCI-H2228 = test system: NCI-H2228
How it was run: (§1)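 Nuclei were stained with Hoechst during a one-step fixation (final 0.05% Triton X-100, 1% formaldehyde, 1 ug/ml Hoechst) carried out 5 days after dosing, then counted on 4× images. The cells, lung cancer lines in 1536-well plates, had been dosed by pin tool the day after seeding with one drug alone or a fixed anchor-drug dose plus five library-drug doses (not always all listed) in √10 steps. Relative viability is the nuclei count in treated wells divided by that in vehicle wells, and each value is the median of duplicate plates.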

HCC-78 = test system: HCC-78
How it was run: as §1

BEN = test system: BEN
How it was run: as §1

NCI-H838 = test system: NCI-H838
How it was run: as §1

NCI-H2009 = test system: NCI-H2009
How it was run: as §1

NCI-H520 = test system: NCI-H520
How it was run: as §1

NCI-H1734 = test system: NCI-H1734
How it was run: as §1

ABC-1 = test system: ABC-1
How it was run: as §1

HCC-366 = test system: HCC-366
How it was run: as §1

NCI-H1650 = test system: NCI-H1650
How it was run: as §1

NCI-H2405 = test system: NCI-H2405
How it was run: as §1

SW 1573 = test system: SW 1573
How it was run: as §1

NCI-H1755 = test system: NCI-H1755
How it was run: as §1

NCI-H2347 = test system: NCI-H2347
How it was run: as §1

LK-2 = test system: LK-2
How it was run: as §1

NCI-H1666 = test system: NCI-H1666
How it was run: as §1

LOU-NH91 = test system: LOU-NH91
How it was run: as §1

UMC-11 = test system: UMC-11
How it was run: as §1

201T = test system: 201T
How it was run: as §1

NCI-H727 = test system: NCI-H727
How it was run: as §1

NCI-H358 = test system: NCI-H358
How it was run: as §1

NCI-H1355 = test system: NCI-H1355
How it was run: as §1

**Q.** With O=c1[nH]c2ccccc2n1C1CCN(CCCC(c2ccc(F)cc2)c2ccc(F)cc2)CC1 [Pimozide] + Cc1nc(Nc2ncc(C(=O)Nc3c(C)cccc3Cl)s2)cc(N2CCN(CCO)CC2)n1 [Dasatinib] (partner 0.075 µM) as the compound, how does the relative viability (NCI-H2228; first compound 0.08 µM) read?
**A.** 0.524

**Q.** And the relative viability (NCI-H2228; first compound 0.253 µM)?
**A.** 0.604

**Q.** What about the relative viability (NCI-H2228; first compound 0.8 µM) of the same compound?
**A.** 0.448

**Q.** What about the relative viability (NCI-H2228; first compound 2.53 µM) of the same compound?
**A.** 0.345

**Q.** What about the relative viability (NCI-H2228; first compound 8 µM) of the same compound?
**A.** 0.315

**Q.** What about the relative viability (HCC-78; first compound 0.08 µM) of the same compound?
**A.** 0.387

**Q.** What about the relative viability (HCC-78; first compound 0.8 µM) of the same compound?
**A.** 0.327

**Q.** And the relative viability (HCC-78; first compound 2.53 µM)?
**A.** 0.345

**Q.** And the relative viability (HCC-78; first compound 8 µM)?
**A.** 0.373

**Q.** What about the relative viability (BEN; first compound 0.08 µM) of the same compound?
**A.** 0.279

**Q.** What about the relative viability (BEN; first compound 0.253 µM) of the same compound?
**A.** 0.364

**Q.** And the relative viability (BEN; first compound 0.8 µM)?
**A.** 0.26

**Q.** What about the relative viability (BEN; first compound 2.53 µM) of the same compound?
**A.** 0.329

**Q.** What about the relative viability (BEN; first compound 8 µM) of the same compound?
**A.** 0.412

**Q.** And the relative viability (NCI-H838; first compound 0.08 µM)?
**A.** 0.266

**Q.** What about the relative viability (NCI-H838; first compound 0.253 µM) of the same compound?
**A.** 0.282

**Q.** And the relative viability (NCI-H838; first compound 0.8 µM)?
**A.** 0.225

**Q.** And the relative viability (NCI-H838; first compound 2.53 µM)?
**A.** 0.302

**Q.** What about the relative viability (NCI-H838; first compound 8 µM) of the same compound?
**A.** 0.279

**Q.** And the relative viability (NCI-H2009; first compound 0.08 µM)?
**A.** 0.307

**Q.** And the relative viability (NCI-H2009; first compound 0.253 µM)?
**A.** 0.326

**Q.** What about the relative viability (NCI-H2009; first compound 0.8 µM) of the same compound?
**A.** 0.328

**Q.** What about the relative viability (NCI-H2009; first compound 2.53 µM) of the same compound?
**A.** 0.214

**Q.** What about the relative viability (NCI-H2009; first compound 8 µM) of the same compound?
**A.** 0.188

**Q.** And the relative viability (NCI-H520; first compound 0.08 µM)?
**A.** 0.216

**Q.** What about the relative viability (NCI-H520; first compound 0.253 µM) of the same compound?
**A.** 0.184

**Q.** What about the relative viability (NCI-H520; first compound 0.8 µM) of the same compound?
**A.** 0.185

**Q.** And the relative viability (NCI-H520; first compound 2.53 µM)?
**A.** 0.176

**Q.** And the relative viability (NCI-H520; first compound 8 µM)?
**A.** 0.225

**Q.** What about the relative viability (NCI-H1734; first compound 0.08 µM) of the same compound?
**A.** 0.495

**Q.** And the relative viability (NCI-H1734; first compound 0.253 µM)?
**A.** 0.454

**Q.** And the relative viability (NCI-H1734; first compound 2.53 µM)?
**A.** 0.529

**Q.** And the relative viability (NCI-H1734; first compound 8 µM)?
**A.** 0.493

**Q.** What about the relative viability (ABC-1; first compound 0.08 µM) of the same compound?
**A.** 0.521

**Q.** What about the relative viability (ABC-1; first compound 0.253 µM) of the same compound?
**A.** 0.48

**Q.** And the relative viability (ABC-1; first compound 0.8 µM)?
**A.** 0.518

**Q.** And the relative viability (ABC-1; first compound 2.53 µM)?
**A.** 0.388

**Q.** What about the relative viability (ABC-1; first compound 8 µM) of the same compound?
**A.** 0.396

**Q.** What about the relative viability (HCC-366; first compound 0.08 µM) of the same compound?
**A.** 0.613

**Q.** What about the relative viability (HCC-366; first compound 0.253 µM) of the same compound?
**A.** 0.644

**Q.** And the relative viability (HCC-366; first compound 0.8 µM)?
**A.** 0.625

**Q.** What about the relative viability (HCC-366; first compound 2.53 µM) of the same compound?
**A.** 0.615

**Q.** And the relative viability (HCC-366; first compound 8 µM)?
**A.** 0.714

**Q.** And the relative viability (NCI-H1650; first compound 0.08 µM)?
**A.** 0.274

**Q.** And the relative viability (NCI-H1650; first compound 0.253 µM)?
**A.** 0.282

**Q.** What about the relative viability (NCI-H1650; first compound 0.8 µM) of the same compound?
**A.** 0.337

**Q.** And the relative viability (NCI-H1650; first compound 2.53 µM)?
**A.** 0.298

**Q.** What about the relative viability (NCI-H1650; first compound 8 µM) of the same compound?
**A.** 0.239

**Q.** What about the relative viability (NCI-H2405; first compound 0.08 µM) of the same compound?
**A.** 0.219

**Q.** What about the relative viability (NCI-H2405; first compound 0.253 µM) of the same compound?
**A.** 0.228

**Q.** And the relative viability (NCI-H2405; first compound 0.8 µM)?
**A.** 0.198

**Q.** And the relative viability (NCI-H2405; first compound 2.53 µM)?
**A.** 0.187

**Q.** And the relative viability (NCI-H2405; first compound 8 µM)?
**A.** 0.188

**Q.** What about the relative viability (SW 1573; first compound 0.08 µM) of the same compound?
**A.** 0.522

**Q.** And the relative viability (SW 1573; first compound 0.253 µM)?
**A.** 0.447

**Q.** And the relative viability (SW 1573; first compound 0.8 µM)?
**A.** 0.5

**Q.** What about the relative viability (SW 1573; first compound 2.53 µM) of the same compound?
**A.** 0.437

**Q.** And the relative viability (SW 1573; first compound 8 µM)?
**A.** 0.692

**Q.** What about the relative viability (NCI-H1755; first compound 0.08 µM) of the same compound?
**A.** 0.372

**Q.** And the relative viability (NCI-H1755; first compound 0.253 µM)?
**A.** 0.446

**Q.** And the relative viability (NCI-H1755; first compound 0.8 µM)?
**A.** 0.426

**Q.** What about the relative viability (NCI-H1755; first compound 2.53 µM) of the same compound?
**A.** 0.456

**Q.** And the relative viability (NCI-H1755; first compound 8 µM)?
**A.** 0.348

**Q.** And the relative viability (NCI-H2347; first compound 0.253 µM)?
**A.** 0.34

**Q.** What about the relative viability (NCI-H2347; first compound 0.8 µM) of the same compound?
**A.** 0.295

**Q.** And the relative viability (NCI-H2347; first compound 2.53 µM)?
**A.** 0.349

**Q.** And the relative viability (NCI-H2347; first compound 8 µM)?
**A.** 0.343

**Q.** What about the relative viability (LK-2; first compound 0.08 µM) of the same compound?
**A.** 0.33

**Q.** And the relative viability (LK-2; first compound 0.253 µM)?
**A.** 0.273

**Q.** And the relative viability (LK-2; first compound 2.53 µM)?
**A.** 0.242

**Q.** And the relative viability (LK-2; first compound 8 µM)?
**A.** 0.24

**Q.** What about the relative viability (NCI-H1666; first compound 0.08 µM) of the same compound?
**A.** 0.752

**Q.** And the relative viability (NCI-H1666; first compound 0.253 µM)?
**A.** 0.814

**Q.** And the relative viability (NCI-H1666; first compound 0.8 µM)?
**A.** 0.82

**Q.** And the relative viability (NCI-H1666; first compound 2.53 µM)?
**A.** 0.708

**Q.** And the relative viability (NCI-H1666; first compound 8 µM)?
**A.** 0.684

**Q.** What about the relative viability (LOU-NH91; first compound 0.08 µM) of the same compound?
**A.** 0.44

**Q.** What about the relative viability (LOU-NH91; first compound 0.253 µM) of the same compound?
**A.** 0.564

**Q.** And the relative viability (LOU-NH91; first compound 0.8 µM)?
**A.** 0.537

**Q.** What about the relative viability (LOU-NH91; first compound 2.53 µM) of the same compound?
**A.** 0.572

**Q.** What about the relative viability (LOU-NH91; first compound 8 µM) of the same compound?
**A.** 0.579

**Q.** And the relative viability (UMC-11; first compound 0.08 µM)?
**A.** 0.46

**Q.** What about the relative viability (UMC-11; first compound 0.253 µM) of the same compound?
**A.** 0.45

**Q.** What about the relative viability (UMC-11; first compound 0.8 µM) of the same compound?
**A.** 0.468

**Q.** What about the relative viability (UMC-11; first compound 2.53 µM) of the same compound?
**A.** 0.431

**Q.** And the relative viability (UMC-11; first compound 8 µM)?
**A.** 0.424

**Q.** What about the relative viability (201T; first compound 0.08 µM) of the same compound?
**A.** 0.573

**Q.** What about the relative viability (201T; first compound 0.253 µM) of the same compound?
**A.** 0.527

**Q.** And the relative viability (201T; first compound 0.8 µM)?
**A.** 0.564

**Q.** What about the relative viability (201T; first compound 2.53 µM) of the same compound?
**A.** 0.516

**Q.** What about the relative viability (201T; first compound 8 µM) of the same compound?
**A.** 0.52

**Q.** And the relative viability (NCI-H727; first compound 0.08 µM)?
**A.** 0.36

**Q.** And the relative viability (NCI-H727; first compound 0.253 µM)?
**A.** 0.347

**Q.** And the relative viability (NCI-H727; first compound 0.8 µM)?
**A.** 0.4

**Q.** And the relative viability (NCI-H727; first compound 2.53 µM)?
**A.** 0.358

**Q.** And the relative viability (NCI-H727; first compound 8 µM)?
**A.** 0.405

**Q.** And the relative viability (NCI-H358; first compound 0.08 µM)?
**A.** 0.16

**Q.** What about the relative viability (NCI-H358; first compound 0.253 µM) of the same compound?
**A.** 0.199

**Q.** And the relative viability (NCI-H358; first compound 0.8 µM)?
**A.** 0.157

**Q.** What about the relative viability (NCI-H358; first compound 2.53 µM) of the same compound?
**A.** 0.156

**Q.** And the relative viability (NCI-H358; first compound 8 µM)?
**A.** 0.172

**Q.** What about the relative viability (NCI-H1355; first compound 0.08 µM) of the same compound?
**A.** 0.744

**Q.** And the relative viability (NCI-H1355; first compound 0.253 µM)?
**A.** 0.722

**Q.** And the relative viability (NCI-H1355; first compound 0.8 µM)?
**A.** 0.671

**Q.** What about the relative viability (NCI-H1355; first compound 2.53 µM) of the same compound?
**A.** 0.672

**Q.** And the relative viability (NCI-H1355; first compound 8 µM)?
**A.** 0.732
